Experimental data reported in PMC8175309, “Translational CNS Steady-State Drug Disposition Model in Rats, Monkeys, and Humans for Quantitative Prediction of Brain-to-Plasma and Cerebrospinal Fluid-to-Plasma Unbound Concentration Ratios” (The AAPS Journal, 2021).
Read-outs that look alike come from different tables or passages of the source.

Tests used:
MDR1 = MDR1 (Homo sapiens, UniProt P08183); experiment: in vitro; conditions: dog, MDCK-MDR1, pH 7.4
Experimental: (§1) To the compounds available internally, in vitro efflux ratios for MDR1 and BCRP were determined by the following procedure (Supplemental Table 2). Test compound stock solutions in dimethyl sulfoxide (DMSO) were diluted in transport buffer (Hanks’ balanced salt solution (HBSS) with 10 mM HEPES, pH 7.4) to a concentration of 1 μM (DMSO < 1%) and applied to the apical or basolateral side of a cell monolayer derived from Madin-Darby canine kidney (MDCK)-MDR1 and MDCK-BCRP cells. Permeation of the test compounds from apical to basolateral (A to B) direction or B to A direction was measured in duplicate. The plate was incubated for 1 h in a CO2 incubator at 37±1°C with 5% CO2 at saturated humidity without shaking. In addition, the efflux ratio of each compound was also determined. Test and reference compounds were quantified by LC-MS/MS analysis based on the peak area ratio of analyte/internal standard.
(§2) The apparent permeability coefficient Papp (cm/s) was calculated by using Eq. 1: 1 Papp=dCr/dt×Vr/A×C0 where dCr/dt is the cumulative concentration of the compound in the receiver chamber as a function of time (μM/s); Vr is the volume of the solution in the receiver chamber (0.075 mL on the apical side, 0.25 mL on the basolateral side); A is the surface area for transport, i.e., 0.0804 cm^2 for the area of the monolayer; and C0 is the initial concentration (μM) in the donor chamber.
(§3) The efflux ratio was calculated using Eq. 2: 2 Efflux ratio=Papp,BtoA/Papp,AtoB

BCRP = molecular target: T1, BCRP (Homo sapiens, UniProt Q9UNQ0); experiment: in vitro; conditions: dog, pH 7.4
T1 sequence (Q9UNQ0 1-655): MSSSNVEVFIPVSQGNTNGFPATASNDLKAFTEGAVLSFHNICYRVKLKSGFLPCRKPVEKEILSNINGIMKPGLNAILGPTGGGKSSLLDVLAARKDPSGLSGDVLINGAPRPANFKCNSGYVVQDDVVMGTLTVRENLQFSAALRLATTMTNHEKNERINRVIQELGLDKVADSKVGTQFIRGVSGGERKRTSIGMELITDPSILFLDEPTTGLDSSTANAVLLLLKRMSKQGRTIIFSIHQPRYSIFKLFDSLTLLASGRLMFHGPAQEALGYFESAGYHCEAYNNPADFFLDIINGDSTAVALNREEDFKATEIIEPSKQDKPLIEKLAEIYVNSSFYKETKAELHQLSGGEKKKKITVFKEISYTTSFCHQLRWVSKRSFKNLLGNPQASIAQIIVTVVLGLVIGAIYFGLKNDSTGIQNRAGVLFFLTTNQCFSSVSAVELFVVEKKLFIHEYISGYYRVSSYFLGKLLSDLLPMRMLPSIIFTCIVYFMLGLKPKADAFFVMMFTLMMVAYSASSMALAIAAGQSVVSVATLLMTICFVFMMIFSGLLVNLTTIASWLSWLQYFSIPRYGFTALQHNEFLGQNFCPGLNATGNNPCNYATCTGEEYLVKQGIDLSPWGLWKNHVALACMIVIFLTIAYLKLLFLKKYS
Experimental: as §1, §2, §3

in vivo [1] = conditions: for Kp uu: rat, in vivo
Experimental: The CSF samples collected from cisterna magna in rats were stored at –80°C until analysis by liquid chromatography-tandem mass spectrometry (LC-MS/MS). Before performing the LC-MS/MS analysis, these samples were thawed on ice and mixed with three volumes of acetonitrile. The acetonitrile mixtures were vortexed and centrifuged, and the supernatant was collected. After dilution with mobile phase A (a mixture of 10 mM ammonium formate and formic acid at 100:0.2 (v/v)), the supernatant was injected into the LC-MS/MS system.
(§4) To perform correlation analyses between the observed Kp,uu,brain and Kp,uu,CSF, and the model-based prediction of Kp,uu,brain and Kp,uu,CSF, data from literature information were integrated into the internally obtained data for these assessments (Supplemental Table 2) ([17],[22]–[24],[27]–[33]). When only the total concentrations in plasma, CSF, and brain were available, the total concentration ratio in plasma to CSF or brain (Kp,CSF or Kp,brain, respectively) was estimated, followed by calculation of Kp,uu,CSF or Kp,uu,brain based on Eqs.

[2] = cited from earlier work
[3] = cited from earlier work; remark: listed apart in the source
[4] = cited from earlier work; for Kp,uu,brain Human: *3 ref Summerfield et al. (25)
in vivo [5] = conditions: for Kp uu at 6 h: cynomolgus monkey, in vivo
Experimental: Monkey experiments were conducted internally or at the Drug Safety Research Laboratories in Shin Nippon Biomedical Laboratories via consignment to Axcelead Drug Discovery Partners. […] Detailed dosage regimen for each compound is summarized in Supplemental Table 3. […] Each cassette was assigned to a separate group of monkeys. The vehicle was saline or a mixture of dimethylacetamide and 1,3-butanediol (1:1, v/v). At the end of the 6-h infusion or 1 h after intravenous bolus administration, the monkeys were anesthetized, and whole blood, CSF, and whole brain were collected. Blood was collected using the anticoagulant, heparin sodium, and immediately centrifuged; the plasma was transferred to polypropylene tubes. Then, ketamine hydrochloride (50 mg/mL; 0.2 mL/kg; 10 mg/kg) was intramuscularly administered. CSF was collected after lumbar puncture using a spinal needle (22–25G) and a syringe pre-wetted with 10% CHAPS solution to prevent adsorption of compounds to all the equipment during pretreatment. CSF samples were immediately centrifuged, and the supernatant layers were transferred to polypropylene tubes. […] After collecting the cerebellum, hippocampus, and cerebral cortex from the whole brain, these were washed with cold saline, weighed, and homogenized immediately in 4 volumes of ice-cold 100 mmol/L sodium phosphate buffer. All samples were stored at –80°C until analysis by LC-MS/MS. Each sample (50 μL) was mixed with the working solution (the mixture of dimethyl sulfoxide and acetonitrile (2:8, v/v)), and protein was precipitated by the addition of 150 μL acetonitrile containing the internal standards (5 ng/mL alprenolol and diclofenac). After centrifugation at 5,250 rpm and 4°C for 5 min, the supernatant (150 μL) was transferred to a polypropylene 96-well plate (Corning; Corning, NY, USA) and completely evaporated under a gentle stream of N2. The residue was reconstituted in dilution solution (mobile phase A/B (7:3, v/v)), and the supernatant was analyzed by LC-MS/MS.
Each sample (50 μL) was mixed with the working solution (the mixture of dimethyl sulfoxide and acetonitrile (2:8, v/v)), and the protein was precipitated by adding 150 μL acetonitrile containing internal standards (5 ng/mL alprenolol and diclofenac). After centrifugation at 5250 rpm and 4°C for 5 min, the supernatant (150 μL) was transferred to a polypropylene 96-well plate (Corning) and completely evaporated under a gentle stream of N2. The residue was reconstituted in mobile phase A/B (7:3, v/v)), and the supernatant was analyzed by LC-MS/MS. API5000 and QTRAP5500 (AB SCIEX, Framingham, MA, USA) equipped with Ultra-Fast Liquid Chromatography (Shimadzu, Kyoto, Japan) were used for determination of drug concentrations. Reversed-phase chromatography was performed using Shim-pack XR ODS (2.2 μm, 2.0×30 mm). Mobile phase A consisted of 10 mM ammonium formate with 0.2% formic acid, and mobile phase B contained acetonitrile with 0.2% formic acid. […] The mass spectrometer was operated in the positive ionization mode with multiple reaction monitoring (MRM). The MRM parameters (Q1 ion, Q3 ion, DP, EP, CE, and CXP) for monitoring the compounds are shown in Supplemental Table 4. Data acquisition and processing were performed using Analyst 1.6.2 (AB SCIEX, Framingham, MA, USA).
as §4

[6] = monkey, *9 ref Nagaya et al. (19)

Sequence of MDR1 (P08183 whole entry): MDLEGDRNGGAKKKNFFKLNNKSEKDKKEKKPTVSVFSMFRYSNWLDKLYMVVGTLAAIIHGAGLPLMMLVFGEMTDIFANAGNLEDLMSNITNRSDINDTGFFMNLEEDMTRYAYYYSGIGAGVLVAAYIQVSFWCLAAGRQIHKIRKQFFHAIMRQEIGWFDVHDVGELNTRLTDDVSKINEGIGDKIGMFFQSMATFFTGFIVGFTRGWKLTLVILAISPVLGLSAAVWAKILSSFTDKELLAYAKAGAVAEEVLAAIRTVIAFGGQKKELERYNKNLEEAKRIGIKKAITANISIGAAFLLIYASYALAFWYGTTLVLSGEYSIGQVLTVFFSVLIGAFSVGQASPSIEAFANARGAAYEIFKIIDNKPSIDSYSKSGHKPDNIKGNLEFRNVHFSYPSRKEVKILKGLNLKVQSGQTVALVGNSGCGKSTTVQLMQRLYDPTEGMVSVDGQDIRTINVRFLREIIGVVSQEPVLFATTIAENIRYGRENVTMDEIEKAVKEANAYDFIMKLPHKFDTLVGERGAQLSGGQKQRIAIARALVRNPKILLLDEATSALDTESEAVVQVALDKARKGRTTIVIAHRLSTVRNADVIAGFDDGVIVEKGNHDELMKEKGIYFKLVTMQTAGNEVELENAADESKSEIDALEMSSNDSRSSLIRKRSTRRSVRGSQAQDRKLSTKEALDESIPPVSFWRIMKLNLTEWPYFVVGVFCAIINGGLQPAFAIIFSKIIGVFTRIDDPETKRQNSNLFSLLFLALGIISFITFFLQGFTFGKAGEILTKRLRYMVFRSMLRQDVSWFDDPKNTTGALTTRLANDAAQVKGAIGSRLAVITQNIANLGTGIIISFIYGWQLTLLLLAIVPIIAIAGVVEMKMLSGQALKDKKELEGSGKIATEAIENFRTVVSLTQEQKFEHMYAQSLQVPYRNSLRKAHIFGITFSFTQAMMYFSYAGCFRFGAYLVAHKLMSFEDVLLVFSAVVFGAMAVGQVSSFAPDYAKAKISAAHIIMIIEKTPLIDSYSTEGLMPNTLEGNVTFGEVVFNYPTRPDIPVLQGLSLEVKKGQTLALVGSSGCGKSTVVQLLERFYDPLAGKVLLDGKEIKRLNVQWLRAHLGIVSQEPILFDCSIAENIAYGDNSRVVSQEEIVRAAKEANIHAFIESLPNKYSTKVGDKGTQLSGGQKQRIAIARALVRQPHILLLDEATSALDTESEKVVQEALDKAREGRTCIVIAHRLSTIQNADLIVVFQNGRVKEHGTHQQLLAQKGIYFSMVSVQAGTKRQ

| SMILES | efflux ratio at 1 h, 1 μM (MDR1) | efflux ratio at 1 h, 1 μM (BCRP) | Kp uu (in vivo [1]; Kp,uu,CSF Rat) | Kp uu (in vivo [1]; Kp,uu,brain Rat) | Kp,uu,brain Rat ([3]; *3 ref Summerfield et al. (25)) | Kp,uu,CSF Rat ([3]; *7 ref Kodaira et al. (20)) | Kp,uu,brain Rat ([3]; *7 ref Kodaira et al. (20)) | Kp,uu,CSF Rat ([3]; *4 ref Friden et al. (21)) | Kp,uu,CSF Human ([4]; *4 ref Friden et al. (21)) | also measured |
| --- | --- | --- | --- | --- | --- | --- | --- | --- | --- | --- |
| Cc1cc(=O)n(-c2ccccc2)n1C [Antipyrine] | 0.9 | 1 | 0.944 | 0.857 |  |  |  |  |  | Kp,uu,CSF Monkey ([2]; cynomolgus monkey, in vivo): 1.05; Kp,uu,brain Monkey ([2]; cynomolgus monkey, in vivo): 0.857 |
| NC(=O)N1c2ccccc2C=Cc2ccccc21 [Carbamazepine] | 1.3 | 0.9 | 0.752 | 0.8 | 0.39 | 0.535 | 0.771 |  |  | Kp,uu,CSF Monkey [2, 6]: 1.19; Kp,uu,brain Monkey [2, 6]: 1.27; Kp,uu,brain Human [4]: 0.55; Kp,uu,CSF Human ([4]; *10 ref Gatti et al. (28)): 1.00 |
| Nc1ccc(S(=O)(=O)c2ccc(N)cc2)cc1 [Dapsone] | 1.3 | 0.8 |  |  |  |  |  |  |  | Kp uu at 6 h (in vivo [5]; Kp,uu,CSF Monkey): 0.661; Kp uu at 6 h (in vivo [5]; Kp,uu,brain Monkey): 1.02; Kp,uu,CSF Human ([4]; *11 ref Togashi et al. (29)): 1.56 |
| C#Cc1cccc(Nc2ncnc3cc(OCCOC)c(OCCOC)cc23)c1 [Erlotinib] | 19.8 | 5.8 | 0.409 | 0.061 |  |  |  |  |  | Kp,uu,CSF Human ([4]; *2 ref Post et al. (24)): 0.428 |
| O=c1c(-c2ccc(O)cc2)coc2cc(O)cc(O)c12 [Genistein] |  |  |  |  |  | 0.589 | 0.181 |  |  | Kp,uu,CSF Rat (in vivo [1]; *1 data internally obtained): 1.29; Kp,uu,brain Rat (in vivo [1]; *1 data internally obtained): 0.0238; Kp,uu,CSF Monkey (in vivo [5]; monkey, lumbar CSF, *1 data internally obtained): 0.0369; Kp,uu,brain Monkey (in vivo [5]; monkey, *1 data internally obtained): 0.0128 |
| COc1ccc2c(c1)c(CC(=O)O)c(C)n2C(=O)c1ccc(Cl)cc1 [Indomethacin] | 3.2 | 12 |  |  |  |  |  | 0.17 | 0.27 |  |
| Nc1nnc(-c2cccc(Cl)c2Cl)c(N)n1 [Lamotrigine] |  |  |  |  | 1.40 |  |  | 0.86 | 1.1 | Kp,uu,CSF Monkey [2, 6]: 0.875; Kp,uu,brain Monkey [2, 6]: 0.678; Kp,uu,brain Human [4]: 2.80 |
| CN(C)C(=O)C(CCN1CCC(O)(c2ccc(Cl)cc2)CC1)(c1ccccc1)c1ccccc1 [Loperamide] | 92 | 0.97 |  |  | 0.024 | 0.038 | 0.00896 | 0.037 |  | Kp,uu,brain Monkey ([2]; monkey, *8 ref Uchida et al. (31)): 0.04; Kp,uu,brain Rat ([3]; *4 ref Friden et al. (21)): 0.007 |
| CN(Cc1cnc2nc(N)nc(N)c2n1)c1ccc(C(=O)N[C@@H](CCC(=O)O)C(=O)O)cc1 [Methotrexate] | 1.4 | 1.2 |  |  |  |  |  | 0.007 | 0.062 |  |
